Experiment [1] has as its system ICAM-1. Briefly: Cell surface ICAM-1 expression on HAEC by ELISA. It is filed as cell-based, human. As to conditions: for induction of cell surface ICAM expression: HAEC exposed 16 hr. The protocol:
In a small scale synthesis reaction, sLO converted 250 uM linoleic acid (LA) into 13-HpODE within the first hour of room temperature incubation. During the subsequent 3 days incubation, 13-HpODE presumably oxidatively modified the enzyme and generating epitopes on the enzyme which can elicit biological s activity such as the expression of cell surface ICAM on HAEC as shown in ELISA assay depicted in FIG. 11. […] In the large scale synthesis reaction, only in the presence of the 13-HpODE generating system did the sLO become active as shown in FIG. 12. sLO negative control represented the sLO enzyme incubated with buffer alone for the extended period of time. We have confirmed the oxSLO synthesized by either method are functionally and immunologically identical. Furthermore, we have determined that formation of a biologically activity is protein specific. Reaction of rabbit serum albumin using the large or small scale oxykine reaction generates immunoreactive but not biologically active products.
(§1) It was investigated whether the oxidative modification of rabbit serum albumin RSA by linoleic hydroperoxide alters the structural or biological property of an element (peptide or nonpeptide) in this material, conferring upon it a biological function as a vascular endothelial cell inflammatory signal. Using oxidatively modified RSA (oxRSA) prepared as described in Example 1, cultured human aortic endothelial cells were exposed for 12 hours with a range of oxRSA concentrations from 1 to 100 nM (nanomolar), and assayed for the cell surface expression of the inducible adhesion molecules VCAM-1, ICAM-1 or the constituitively expressed adhesion molecule ICAM-2 by ELISA assay. […] Furthermore, limulus assay for LPS in the oxRSA preparation was below detection. Constituitively expressed ICAM-2 was unaffected.

In experiment [2] the test system is ICAM-1. To be noted: human aortic endothelial cells; cited from earlier work.
For experiment [3], the system named is VCAM-1. As to conditions: cited from earlier work; for induction of cell-surface expression of VCAM-1: human aortic endothelial cells.
Experiment [4] has as its system E-selectin. To be noted: human aortic endothelial cells; cited from earlier work.
For experiment [5], the system named is anti-LOOH/RSA antibody. Briefly: ELISA recognition of modified proteins/peptides by anti-LOOH/RSA antibody. Type of experiment: binding, rabbit. The protocol:
Using ELISA, it was investigated whether the LOOH/RSA antibody recognized the LOOH/modified protein and unmodified protein. Unmodified IgG-free RSA was used as control. incubation at 37° C., wells were washed with PBS three times. Goat anti-rabbit IgG conjugated with alkaline phosphatase was diluted to 1:38,000 and added. After 2 hrs incubation at 37 °C, wells were washed again and p-nitrophenolphosphate was added. Color development was determined by a plate reader (Anthos II).
Microtiter wells were coated with increasing concentrations of unmodified, or modified peptide. After blocking wells with non-fat milk powder, 100 μl of 1:250 dilution of anti-LOOH/RSA antibody was added to each well. After wash, anti-rabbit IgG conjugated with alkaline phosphatase was added to each well. After adding substrate p-nitrophenyl phosphate, the OD was measured at 405 nm using a microplate reader. Values represent averages of a triplicate set of optical density readings of wells from one of at least 2 separate trials. 20 Western blot analysis of the aldehyde- and LOOH-modified peptide confirmed that none of the aldehyde-modified synthetic proteins were recognized to any significant extent, whereas LOOH-modified peptide was recognized by the antibody.
For orientation: In an ELISA, binding on a coated surface is turned into a signal by an enzyme label.

For experiment [6], the system named is ICAM-2. Briefly: Cell surface ICAM-2 expression on HAEC by ELISA. To be noted: 12 hours. Type of experiment: cell-based, human. Here is the method: as §1
The test system of experiment [7] is NF-kB like DNA binding activity. Briefly: Gel mobility shift assay, NF-kB-like binding sites of VCAM-1 promoter. Type of experiment: cell-based, human. To be noted: HAEC, two hours; TNFa 100 U/ml or oxRSA 25 nM. The protocol:
To determine whether oxRSA modulated nuclear regulatory events associated with redox sensitive VCAM-1 gene expression, cultured human aortic endothelial cells were exposed or not (CTL) for two hours to TNFa (100 U/ml) or 25 nM of the oxykine RSA-LOOH (oxRSA), nuclear extracts prepared and gel mobility shift assays performed using 32P-labeled kL0kR, the tandem NF-kB-like binding sites of the human VCAM-1 promoter. Appropriate cold competitor and supershift controls using anti-p50 and anti-p65 antisera (R&D Systems) were performed to establish the DNA sequence binding specificity of the NF-kB complex band. Both TNF and oxRSA inducted NF-kB like DNA binding activity.

The test system of experiment [8] is ICAM-1 mRNA. Briefly: Northern blot ICAM-1 mRNA accumulation in HAEC. It is filed as cell-based, human. The protocol: (§2) The ELISA data is supported by the Northern Blot data as illustrated in FIG. 15. […] Within 2-6 hr of stimulation, the mRNA level of the indicated genes all reached a steady state.
(§3) It was next investigated whether the induction of VCAM-1 and ICAM-1 cell surface expression by ox-RSA is due at least in part to changes in mRNA accumulation. Northern filter analysis was performed from RNA isolated from HAEC exposed for 4 hours With either TNFa (100 U/ml) or oxRSA (25 nM). Similar to that observed at the protein level, VCAM-mRNA levels were induced by ox-RSA to levels approximately 30-40% observed for TNFa.

Experiment [9] relates to VCAM-1. Briefly: Cell surface VCAM-1 expression on HAEC by ELISA. It is filed as cell-based, human.
Description: as §2, §1

The subject of experiment [10] is VCAM-1 mRNA. Briefly: Northern blot VCAM-1 mRNA accumulation in HAEC. It is filed as cell-based, human. The protocol: as §2, §3
In experiment [11] the test system is MCP-1 mRNA. Briefly: Northern blot MCP-1 mRNA accumulation in HAEC. It is filed as cell-based, human.
Description: as §2

Setting [12] is: VCAM-1 and ICAM-1 induction, polymyxin B 10 ug/ml.

Bounds are passed on as bounds.

As for `O=C(O)CN(CCN(CC(=O)O)CC(=O)O)CC(=O)O` [EDTA], in [1], the “effect of addition on ICAM-1 induction by the oxykine” value (“effect of addition” for short) was “no effect”.
On to `CCCCC/C=C\C/C=C\CCCCCCCC(=O)O` [LA, linoleic acid], for which, in experiment [2], the “induction of cell-surface expression of ICAM-1” value was “not”. In experiment [3], the “induction of cell-surface expression of VCAM-1” value is recorded as “induce”. In experiment [4], the “induction of cell-surface expression of E-selectin” value (“induction … of E-selectin” for short) is given as “not”. Also, in experiment [1], the “induction of cell surface ICAM expression” value is “did not become active”.
For the molecule `S=C(S)N1CCCC1` [PDTC, pyrrolidine dithiocarbamate], in experiment [3], the “effect on induction of VCAM-1 by PUFAs and their fatty acid hydroperoxides” value was “suppressed”.
For `Cc1c(C)c2c(c(C)c1O)CCC(C)(C(=O)O)O2` (centres unmarked) [Trolox], the “effect of addition” value in experiment [1] is reported as “no effect”.
Regarding `CCCCC/C=C\C/C=C\C/C=C\C/C=C\CCCC(=O)O` [arachidonic acid], in experiment [2], the “induction of cell-surface expression of ICAM-1” value is “not”. Moreover, the “induction of cell-surface expression of VCAM-1” value in [3] was “induce”. Further, the “induction … of E-selectin” value in [4] was “not”.
With `CCCCCCCC/C=C\CCCCCCCC(=O)O` [oleic acid], the “induction of cell-surface expression of ICAM-1” value in [2] is given as “do not induce”. Besides, in [3], the “induction of cell-surface expression of VCAM-1” value is recorded as “do not induce”. The “induction … of E-selectin” value in experiment [4] was “do not induce”.
Turning to `CC(C)(Sc1cc(C(C)(C)C)c(O)c(C(C)(C)C)c1)Sc1cc(C(C)(C)C)c(O)c(C(C)(C)C)c1` [probucol], the “effect of addition” value in [1] is given as “no effect”.
For the molecule `CCCCCCCCCCCCCCCCCC(=O)O` [stearic acid], the “induction of cell-surface expression of ICAM-1” value in experiment [2] is reported as “do not induce”. Moreover, the “induction of cell-surface expression of VCAM-1” value in experiment [3] is listed as “do not induce”. Besides, in experiment [4], the “induction … of E-selectin” value is on record as “do not induce”.
As to “RSA: unmodified IgG-free rabbit serum albumin used as control”, the “recognition by the antibody in ELISA” value in [5] is given as “barely recognized”.
On to “YVTKSYNETKIKFDKYKAKSHEDEL [Native peptide]”, for which the “recognition by the antibody in ELISA” value in experiment [5] was “failed to recognize”.
For the molecule linoleyl 194 hydroperoxide, the “induction of cell-surface expression of ICAM-1” value in [2] is on record as “not”. In experiment [3], the “induction of cell-surface expression of VCAM-1” value is on record as “induce”. For the same molecule, the “induction … of E-selectin” value in experiment [4] is “not”.
As a reminder, the EC50 is the concentration giving half of the maximal effect. For the molecule “oxRSA: rabbit serum albumin oxidatively modified by linoleic hydroperoxide (13-HPODE), Example 1”, the “effect on constitutively expressed ICAM-2” value in experiment [6] was “unaffected”. Also, in experiment [7], the “NF-kB like DNA binding activity” value is reported as “inducted”. In addition, in [5], the “concentration corresponding to least amount recognized” value is listed as under 2 nM. Moreover, the “least amount recognized by the antibody” value in experiment [5] (antibody 1:250, above control protein) is listed as 10 ng. In experiment [8] (4 hours, 25 nM), the “ICAM-1 mRNA induction” value is “induced”. In addition, the “induction of VCAM-1 as percent of maximal TNF-a induced signal” value in experiment [9] (HAEC, 12 hours, 1 to 100 nM) is 40%. For the same molecule, the EC50 in experiment [9] (HAEC, 12 hours, read-out: approximate EC50 for VCAM-1 induction) fell in the range of 10 to 15 nM; in experiment [1] (HAEC, 12 hours, read-out: approximate EC50 for ICAM-1 induction), 10 to 15 nM. Moreover, the “induction of ICAM-1 as percent of maximal TNF-a induced signal” value in experiment [1] (HAEC, 12 hours, 1 to 100 nM) came out at 80%. Moreover, in experiment [10] (4 hours, 25 nM, TNFa 100 U/ml), the “VCAM-mRNA level relative to that observed for TNFa” value is 30-40%.
For polymyxin B, in experiment [9] (setting [12]), the “effect on LPS induction” value is reported as “fully inhibited” and the “effect on oxRSA activation” value is reported as “no effect”.

B1: soybean lipoxygenase (protein, UniProt P08170 1-839, looked up)
Seed linoleate …: MFSAGHKIKGTVVLMPKNELEVNPDGSAVDNLNAFLGRSVSLQLISATKADAHGKGKVGKDTFLEGINTSLPTLGAGESAFNIHFEWDGSMGIPGAFYIKNYMQVEFFLKSLTLEAISNQGTIRFVCNSWVYNTKLYKSVRIFFANHTYVPSETPAPLVSYREEELKSLRGNGTGERKEYDRIYDYDVYNDLGNPDKSEKLARPVLGGSSTFPYPRRGRTGRGPTVTDPNTEKQGEVFYVPRDENLGHLKSKDALEIGTKSLSQIVQPAFESAFDLKSTPIEFHSFQDVHDLYEGGIKLPRDVISTIIPLPVIKELYRTDGQHILKFPQPHVVQVSQSAWMTDEEFAREMIAGVNPCVIRGLEEFPPKSNLDPAIYGDQSSKITADSLDLDGYTMDEALGSRRLFMLDYHDIFMPYVRQINQLNSAKTYATRTILFLREDGTLKPVAIELSLPHSAGDLSAAVSQVVLPAKEGVESTIWLLAKAYVIVNDSCYHQLMSHWLNTHAAMEPFVIATHRHLSVLHPIYKLLTPHYRNNMNINALARQSLINANGIIETTFLPSKYSVEMSSAVYKNWVFTDQALPADLIKRGVAIKDPSTPHGVRLLIEDYPYAADGLEIWAAIKTWVQEYVPLYYARDDDVKNDSELQHWWKEAVEKGHGDLKDKPWWPKLQTLEDLVEVCLIIIWIASALHAAVNFGQYPYGGLIMNRPTASRRLLPEKGTPEYEEMINNHEKAYLRTITSKLPTLISLSVIEILSTHASDEVYLGQRDNPHWTSDSKALQAFQKFGNKLKEIEEKLVRRNNDPSLQGNRLGPVQLPYTLLYPSSEEGLTFRGIPNSISI
notes: unmodified soybean lipoxygenase, negative control
In the case of B1, the figures for the “ICAM-1 mRNA” value in experiment [8] (0.008 ug/ml), in experiment [8] (0.08 ug/ml) and in experiment [8] (0.8 ug/ml) were −0.51 arbitrary units, −0.09 arbitrary units and 3.14 arbitrary units, respectively. The “induction of cell surface ICAM expression” value in experiment [1] is “did not become active”; in [1] (listed as unmodified sLO), “failed to activate”. For the same molecule, the results for the “MCP-1 mRNA” value in experiment [11] (0.008 ug/ml), in [11] (0.08 ug/ml) and in experiment [11] (0.8 ug/ml) were 1.12 arbitrary units, 3.1 arbitrary units and 12.34 arbitrary units, respectively. Besides, in experiment [11] (Northern blot), the “MCP-1 mRNA accumulation” value is on record as “not”. Moreover, the “VCAM-1 mRNA” value in experiment [10] (0.008 ug/ml) is reported as −0.14 arbitrary units; in [10] (0.08 ug/ml), 0.12 arbitrary units; in experiment [10] (0.8 ug/ml), 3.36 arbitrary units. Besides, the “VCAM mRNA accumulation” value in experiment [10] (Northern blot, 4 hr) is “not”.

The record behind these values is patent US20020052000A1, “Diagnostics for and mediators of inflammatory disorders” (priority 1996, published 2002).
